# Paper PMC11640836, “Aminomethylmorpholino Nucleosides as Novel Inhibitors of PARP1 and PARP2: Experimental and Molecular Modeling Analyses of Their Selectivity and Mechanism of Action” (International Journal of Molecular Sciences, 2024)
# Read-outs that look alike come from different tables or passages of the source.
# Assays:
# PARP1-DNA complex [1] = molecular target: T1, PARP1-DNA complex (Homo sapiens, UniProt P09874); assay: AutoPARylation-induced dissociation of the PARP1-DNA complex (fluorescence anisotropy kinetics); format: biochemical; details: 120 µM H2N-Mor-T or 400 nM olaparib
# T1 construct: made in house; host or cells: insect cells
# T1 sequence (P09874 whole entry, one chain of several): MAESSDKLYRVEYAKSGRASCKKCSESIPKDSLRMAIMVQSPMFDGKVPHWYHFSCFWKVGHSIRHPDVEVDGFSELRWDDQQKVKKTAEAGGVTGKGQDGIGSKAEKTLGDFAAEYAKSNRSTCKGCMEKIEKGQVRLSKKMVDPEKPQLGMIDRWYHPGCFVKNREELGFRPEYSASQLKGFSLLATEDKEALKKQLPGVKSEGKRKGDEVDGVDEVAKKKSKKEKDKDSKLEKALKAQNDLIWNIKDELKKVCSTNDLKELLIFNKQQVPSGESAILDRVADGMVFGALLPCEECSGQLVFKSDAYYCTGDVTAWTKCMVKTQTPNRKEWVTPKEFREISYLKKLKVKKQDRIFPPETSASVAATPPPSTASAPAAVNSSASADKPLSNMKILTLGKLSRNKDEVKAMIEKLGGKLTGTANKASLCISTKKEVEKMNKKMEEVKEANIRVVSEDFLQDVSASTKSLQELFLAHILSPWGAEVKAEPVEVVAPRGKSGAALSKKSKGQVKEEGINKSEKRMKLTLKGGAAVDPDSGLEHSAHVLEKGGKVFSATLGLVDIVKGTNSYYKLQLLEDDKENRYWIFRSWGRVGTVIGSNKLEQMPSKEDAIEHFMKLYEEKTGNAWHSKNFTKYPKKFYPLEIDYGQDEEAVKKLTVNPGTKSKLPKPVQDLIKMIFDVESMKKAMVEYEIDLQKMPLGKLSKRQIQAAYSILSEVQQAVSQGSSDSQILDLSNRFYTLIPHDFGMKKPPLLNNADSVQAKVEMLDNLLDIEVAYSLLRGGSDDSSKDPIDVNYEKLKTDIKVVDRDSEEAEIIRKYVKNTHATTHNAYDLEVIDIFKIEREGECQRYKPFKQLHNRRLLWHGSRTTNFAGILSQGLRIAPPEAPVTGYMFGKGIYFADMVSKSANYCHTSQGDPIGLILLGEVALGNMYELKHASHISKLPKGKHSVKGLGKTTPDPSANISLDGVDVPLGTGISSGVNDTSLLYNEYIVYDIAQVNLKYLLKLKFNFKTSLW
# Method: (§1) Fluorescence anisotropy measurements of FAM-labeled DNA were performed in the absence and presence of various concentrations of PARP1/PARP2 with or without sub-saturating concentrations of an inhibitor. […] The averaged values were used for the final plot, and EC50 values were determined with MARS Data Analysis software version 3.00 (BMG LABTECH, Ortenberg, Germany). The data were plotted (F vs. C) and fitted to a four-parameter equation, F = F0 + (F∞ − F0)/[1 + (EC50/C)^n], where F is the measured fluorescence anisotropy of a solution containing the labeled DNA at a given concentration (C) of protein, F0 is the fluorescence anisotropy of the solution of the labeled DNA alone, F∞ is the fluorescence anisotropy of the labeled DNA saturated with the protein, EC50 is the concentration of the protein where F − F0 = (F∞ − F0)/2, and n is the Hill coefficient, which denotes the slope of the nonlinear curve. The apparent rate constants (kobs values) of dissociation of the PARP1 (PARP2)-DNA complex during the PARylation reaction performed in the absence or presence of an inhibitor were estimated by fluorescence anisotropy measurements, as described previously. […] The kinetic data were fitted to an exponential curve to calculate kobs with MARS Data Analysis software. […]
# PARP1-DNA complex [2] = molecular target: T1, PARP1-DNA complex; assay: Fluorescence anisotropy titration of FAM-labeled gap-DNA with PARP1; format: binding; details: 120 µM inhibitor, absence vs presence
# Method: as §1
# [3] = molecular target: T2, PARP2 (supplemented with HPF1 or not) (Mus musculus, UniProt O88554); assay: PARP2 inhibition in the absence and presence of HPF1 (automodification, SDS-PAGE); format: biochemical, murine; details: 500 nM PARP2, 1 µM HPF1
# T2 construct: made in house; host or cells: insect cells (PARP2)
# T2 sequence (O88554 whole entry): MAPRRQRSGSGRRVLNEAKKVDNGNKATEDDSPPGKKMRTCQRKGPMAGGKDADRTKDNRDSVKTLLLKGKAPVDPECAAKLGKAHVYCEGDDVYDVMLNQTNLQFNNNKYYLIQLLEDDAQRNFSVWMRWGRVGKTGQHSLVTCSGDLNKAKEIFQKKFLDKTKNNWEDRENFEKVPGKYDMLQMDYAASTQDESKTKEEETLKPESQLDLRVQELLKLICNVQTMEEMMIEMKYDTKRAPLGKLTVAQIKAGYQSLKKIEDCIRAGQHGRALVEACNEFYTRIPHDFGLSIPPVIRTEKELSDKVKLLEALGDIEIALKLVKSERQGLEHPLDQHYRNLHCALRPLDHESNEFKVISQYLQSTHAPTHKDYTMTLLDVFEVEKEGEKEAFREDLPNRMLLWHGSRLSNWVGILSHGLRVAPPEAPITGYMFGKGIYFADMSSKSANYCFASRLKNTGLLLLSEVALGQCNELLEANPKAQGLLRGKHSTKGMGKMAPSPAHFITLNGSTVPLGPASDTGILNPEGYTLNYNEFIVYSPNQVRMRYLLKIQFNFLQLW
# Method: PARP1/PARP2 autopoly(ADP-ribosyl)ation was performed in a standard 20 μL reaction mixture containing 50 mM of Tris-HCl, a pH of 8.0, 100 mM of NaCl, 10 mM of MgCl2, 1 mM of DTT, 10 µM of [^32P]NAD^+, 1 µM of gap-DNA (a 32-mer duplex with a medially located 1-nucleotide gap), 500 nM of PARP1/PARP2 (supplemented with 1 µM of HPF1 or not), and an inhibitor of interest at concentrations specified in Figure 4 and Figure S7. The reaction was initiated by adding a mixture of [^32P]NAD^+ and DNA to a protein-inhibitor mixture pre-assembled on ice. After incubating the mixtures at 37 °C for the indicated time periods, the reactions were terminated by the addition of an SDS-PAGE sample buffer and heating for 2 min at 90 °C. The reaction products were analyzed using 10% SDS-PAGE with the subsequent phosphor imaging of a Coomassie brilliant blue stained gel. Protein bands labeled with [^32P]ADP-ribose were quantified using Quantity One 4.6.7 Basic software. The residual activity (%) was determined as the level of PARP automodification in the presence of an inhibitor normalized to the respective level in the control sample containing no inhibitor.
# PARP2-DNA complex [4] = molecular target: T3, PARP2-DNA complex (Mus musculus, UniProt O88554); assay: Fluorescence anisotropy titration of FAM-labeled gap-DNA with PARP2; format: binding, murine; details: 240 µM inhibitor
# T3 construct: made in house; host or cells: insect cells
# T3 sequence (O88554 whole entry, one chain of several): as the sequence (O88554 whole entry) above
# Method: as §1
# PARP2 = molecular target: T4, PARP2 (Mus musculus, UniProt O88554); assay: Steady-state kinetic analysis of the PARP2 enzymatic reaction; format: biochemical, murine
# T4 construct: made in house; host or cells: insect cells
# T4 sequence (O88554 whole entry): as above
# Method: The four efficient inhibitors of PARP1 (compounds 8, 12, 13, and 14) were further examined by detailed kinetic experiments to determine the type of inhibition and the inhibition constants. […] The kinetics experiments of the PARylation reaction were performed at varied concentrations of the NAD^+ substrate and three–four different fixed concentrations of the inhibitor. The kinetic parameters of the reaction (Vmax and KM) were calculated by fitting the Michaelis–Menten equation to the kinetic data. The type of inhibition was determined by analyzing the dependences of Vmax and KM on the concentration of the inhibitor in linearizing coordinates (Figure S3). All the compounds had decreased Vmax and increased KM values as the inhibitor concentration increased (panels A−E), indicating a mixed type of inhibition, which was further evidenced by the double reciprocal plots of kinetic data (panel F). From these experiments, the inhibition constants reflecting the affinity of inhibitors to the NAD^+ binding pocket of free enzymes were determined (Table 2).
# To determine the apparent maximum rate of enzymatic reaction (Vmax), Michaelis constant (KM), and possible inhibition mechanism, steady-state kinetic experiments were performed at […] fixed concentrations of the substrate, in the absence and presence of different fixed concentrations of the inhibitor. The standard reaction mixtures (10 μL) contained 100 μM, 300 μM, 500 μM, 1 mM, or 2 mM NAD^+; a tested PARP1/PARP2 inhibitor specified for each compound (Figure S3); the recombinant human enzyme PARP1 (200 nM) or murine PARP2 (800 nM); and reaction buffer components (specified in the previous subsection). The reaction was performed as described in the previous subsection. The raw data (kinetic curves) were obtained in three independent experiments and statistically processed with OriginPro 8.6.0 software. […]
# F) Graphical representation in double reciprocal plots. […]
# The Ki and Ki(2) values presented in Table 2 in the main text and Table S1 were calculated using the equations: […]
# PARP2-DNA complex [5] = molecular target: T3, PARP2-DNA complex; assay: AutoPARylation-induced dissociation of the PARP2-DNA complex (fluorescence anisotropy kinetics); format: biochemical, murine; details: 240 µM H2N-Mor-U(I) or 800 nM olaparib
# Method: as §1
SMILES,Inhibition of dissociation of the PARP1 complex with DNA (PARP1-DNA complex [1]; 0.4 mM NAD+),Inhibition of dissociation of the PARP1 complex with DNA (PARP1-DNA complex [1]; 1.4 mM NAD+),Effect of inhibitor on EC50 of the PARP1–DNA complex (PARP1-DNA complex [2]),Impact of HPF1 on the inhibition potency against PARP2 [3],Effect of inhibitor on the stability of the PARP2–DNA complex (PARP2-DNA complex [4]),"Type of inhibition (PARP2; Vmax decreased, KM increased)","Ki (PARP2; mixed-type inhibition, read-out: Ki (affinity for the free enzyme)) [µM]",Ki (PARP2; read-out: Ki(2) (affinity for the enzyme complex with NAD+ substrate)) [µM],Inhibition of dissociation of the PARP2 complex with DNA (PARP2-DNA complex [5]; 0.4 mM NAD+),Inhibition of dissociation of the PARP2 complex with DNA (PARP2-DNA complex [5]; 1.4 mM NAD+)
Cc1cn([C@H]2CNC[C@@H](CN)O2)c(=O)[nH]c1=O [Compound 8],~ 2 fold,~ 1.5 fold,almost the same,no impact of HPF1,–,–,–,–,–,–
NC[C@@H]1CNC[C@H](n2cc(I)c(=O)[nH]c2=O)O1 [Compound 14],–,–,–,no impact of HPF1,No statistically significant effect,mixed-type inhibition,120 ± 23,400 ± 70,~ 2 fold,~ 1.5 fold
